Where two headings read alike, the source gives them in different places.
What was measured:
microglia [1] = details: 24 hours
Method: After the cells were suspended, the number of cells was measured and adjusted to the same cell number. The cells became luminescent according to the amount of ATP using a luciferin-based ATP luminescence measurement kit (Promega, USA), the luminescence degree was measured by a luminometer (LMaxII384; Molecular Devices, USA), and ChemiDoc™ Touch Gel Imaging System (Bio-Rad) was used for imaging.

microglia [2] = details: 24 hours; remark: listed apart in the source
microglia [3] = details: 0.1 μg/μl of each of 11 nanoparticles/particulate matters, 24 hours, formazan absorbance at 490 nm

With `O=C(O)CC(O)(CC(=O)O)C(=O)O` [citric acid] the “ATP reduction induced by MNPs@SiO2(RITC)” value (microglia [1]; 0.01 or 0.1 μg/μl MNPs@SiO2(RITC), luminescence) was “inhibited”, the “ATP increase compared to group treated only with MNPs@SiO2(RITC)” value (microglia [1]; co-treated with 0.1 μg/μl MNPs@SiO2(RITC) (50 nm)) was 30% and the “decrease in the cell number due to particles” value (“decrease” below) (microglia [2]; 0.1 μg/μl MNPs@SiO2(RITC)) was “mitigated”. For the same compound, the “decrease” value (microglia [2]; 0.1 μg/μl gold nanoparticles (Au, 10 nm)) was “mitigated”, the “decrease” value (microglia [2]; 0.1 μg/μl polystyrene microplastics (PS, 2 μm)) was “mitigated” and the “decrease” value (microglia [2]; 0.1 μg/μl polystyrene microplastics (PS, 100 nm)) was “mitigated”. The “decrease” value (microglia [2]; 0.1 μg/μl quantum dot nanoparticles (CdSe, 10 nm)) was “mitigated”, the “decrease” value (microglia [2]; 0.1 μg/μl silica carbon nanotubes (MWCNT, 25 nm)) was “mitigated” and the “decrease” value (microglia [2]; 0.1 μg/μl silica nanoparticles (SiO2, 30 nm)) was “mitigated”. For the same compound, the “decrease” value (microglia [2]; 0.1 μg/μl silica nanoparticles (SiO2, 50 nm)) was “mitigated”, the “decrease” value (microglia [2]; 0.1 μg/μl silver nanoparticles (Ag, 20 nm)) was “mitigated” and the “decrease” value (microglia [2]; 0.1 μg/μl titanium oxide nanoparticles (TiO2, 40 nm)) was “mitigated”. For the same compound, the “decrease” value (microglia [2]; 0.1 μg/μl urban particulate matters (UPM, NIST 1648A)) was “mitigated” and the “reduction in cell viability due to nanoparticles and particulate matters” value (microglia [3]) was “mitigated”.
